Results taken from publication PMC4855151 (Scientific Reports, 2016).

Target: Cut2 (cutinase 2) (Pyricularia oryzae, UniProt G4MZV6)
Conditions: 12.5 nM Cut2, 0-8 mM substrate; assay buffer 25 mM NaH2PO4, pH 7.2

Sequence of Cut2 (cutinase 2) (G4MZV6 19-214 limits assumed): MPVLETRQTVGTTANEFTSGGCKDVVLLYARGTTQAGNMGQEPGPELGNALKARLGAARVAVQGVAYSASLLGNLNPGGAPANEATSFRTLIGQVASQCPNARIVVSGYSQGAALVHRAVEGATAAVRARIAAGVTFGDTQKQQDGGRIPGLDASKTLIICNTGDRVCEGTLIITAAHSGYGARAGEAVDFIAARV

SMILES: CCCC(=O)Oc1ccc([N+](=O)[O-])cc1 [p-nitrophenyl butyrate]
- kcat/Km: We determined kcat/Km for our recombinant Cut2 with p-nitrophenylbutyrate as substrate
